Columns and labels:
Conditions in all cases: 48 h
CU-ACC1 [1] = assay: AC50 viability; higher = less potent
In short: (§1)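 Three adrenocortical carcinoma cell lines were seeded at 500–1,000 cells/well in 5 µL medium in 1,536-well plates. 23 nL of each MIPE 5.0 library compound was added at 11 concentrations. After 48 h (per the protocol name), CellTiter-Glo was added for 15 minutes at room temperature and luminescence was read. Signals were normalised per plate to vehicle and empty-well controls. AC50 and area under the curve came from fitted concentration-response curves, keeping only inhibitory or non-responding curve classes.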

NCI-H295R [2] = assay: AC50 viability; higher = less potent
In short: as §1

CU-ACC1 [3] = assay: area under concentration-response curve (viability) (AUC (a.u.)); higher = less active
In short: as §1

CU-ACC2 = assay: as above
In short: as §1

NCI-H295R [4] = assay: as above
In short: as §1

FC(F)(F)c1ccc(C/N=c2\ccc(Cc3c[nH]c4ncccc34)c[nH]2)cc1
AC50 viability (CU-ACC1 [1]): 16.6 µM | AC50 viability (NCI-H295R [2]): 11.8 µM | area under concentration-response curve (CU-ACC1 [3]): 511 | area under concentration-response curve (CU-ACC2): 597 | area under concentration-response curve (NCI-H295R [4]): 541

O=C(Nc1cccnc1)N1CCC(Cc2cccc(Oc3ccc(C(F)(F)F)cn3)c2)CC1
AC50 viability (CU-ACC1 [1]): 5.25 µM | AC50 viability (NCI-H295R [2]): 18.6 µM | area under concentration-response curve (CU-ACC1 [3]): 406 | area under concentration-response curve (CU-ACC2): 559 | area under concentration-response curve (NCI-H295R [4]): 500

CN1CCN(c2ccc3nc(-c4cc(C(C)(C)C)c(OCCCC(=O)NCCCN=[N+]=[N-])c(C(C)(C)C)c4)[nH]c3c2)CC1
AC50 viability (CU-ACC1 [1]): 7.42 µM | AC50 viability (NCI-H295R [2]): 7.42 µM | area under concentration-response curve (CU-ACC1 [3]): 462 | area under concentration-response curve (CU-ACC2): 566 | area under concentration-response curve (NCI-H295R [4]): 508

COC(=O)Nc1ccc(-c2nc(N3CCOCC3)c3cnn(C4CCN(C(=O)OC)CC4)c3n2)cc1
AC50 viability (CU-ACC1 [1]): 2.95 µM | AC50 viability (NCI-H295R [2]): 2.95 µM | area under concentration-response curve (CU-ACC1 [3]): 399 | area under concentration-response curve (CU-ACC2): 573 | area under concentration-response curve (NCI-H295R [4]): 485

C=C(C)[C@H]1Cc2c(ccc3c2O[C@@H]2COc4cc(OC)c(OC)cc4[C@@H]2C3=O)O1
AC50 viability (CU-ACC1 [1]): 0.166 µM | AC50 viability (NCI-H295R [2]): 1.05 µM | area under concentration-response curve (CU-ACC1 [3]): 344 | area under concentration-response curve (CU-ACC2): 479 | area under concentration-response curve (NCI-H295R [4]): 445

NC(=O)c1cccc2nc(-c3ccc([C@H]4CCCN4)cc3F)[nH]c12
AC50 viability (CU-ACC1 [1]): 8.33 µM | AC50 viability (NCI-H295R [2]): 7.42 µM | area under concentration-response curve (CU-ACC1 [3]): 453 | area under concentration-response curve (CU-ACC2): 576 | area under concentration-response curve (NCI-H295R [4]): 464

COc1ccc(CCN(C)CCCC(C#N)(c2ccc(OC)c(OC)c2)C(C)C)cc1OC (stereo not given)
AC50 viability (CU-ACC1 [1]): 29.5 µM | AC50 viability (NCI-H295R [2]): 23.5 µM | area under concentration-response curve (CU-ACC1 [3]): 397 | area under concentration-response curve (CU-ACC2): 490 | area under concentration-response curve (NCI-H295R [4]): 397

COc1ncc(Nc2ncc([C@H](C)N3CCN([S+](C)(=O)[O-])CC3)cc2-c2nc(C)nc(N)n2)cc1F
AC50 viability (CU-ACC1 [1]): 1.32 µM | AC50 viability (NCI-H295R [2]): 0.934 µM | area under concentration-response curve (CU-ACC1 [3]): 387 | area under concentration-response curve (CU-ACC2): 473 | area under concentration-response curve (NCI-H295R [4]): 392

CC1=C(C)C2=C(S1)[N]3C(=NN=C3[C@H](CC(=O)OC(C)(C)C)/N=C2/C4=CC=C(Cl)C=C4)C
AC50 viability (CU-ACC1 [1]): 18.6 µM | AC50 viability (NCI-H295R [2]): 16.6 µM | area under concentration-response curve (CU-ACC1 [3]): 432 | area under concentration-response curve (CU-ACC2): 553 | area under concentration-response curve (NCI-H295R [4]): 520

C[C@@H](Oc1ccc2[nH]nc(/C=C/c3cnn(CCO)c3)c2c1)c1c(Cl)cncc1Cl
AC50 viability (CU-ACC1 [1]): 16.6 µM | AC50 viability (NCI-H295R [2]): 14.8 µM | area under concentration-response curve (CU-ACC1 [3]): 481 | area under concentration-response curve (CU-ACC2): 519 | area under concentration-response curve (NCI-H295R [4]): 473

Cc1nc(-c2cn3c(n2)-c2ccc(-c4cnn(C(C)(C)C(N)=O)c4)cc2OCC3)n(C(C)C)n1
AC50 viability (CU-ACC1 [1]): 0.132 µM | AC50 viability (NCI-H295R [2]): 0.934 µM | area under concentration-response curve (CU-ACC1 [3]): 414 | area under concentration-response curve (CU-ACC2): 528 | area under concentration-response curve (NCI-H295R [4]): 458

Cc1cccc(CN2CCN(C(c3ccccc3)c3ccc(Cl)cc3)CC2)c1 (stereo not given)
AC50 viability (CU-ACC1 [1]): 13.2 µM | AC50 viability (NCI-H295R [2]): 16.6 µM | area under concentration-response curve (CU-ACC1 [3]): 422 | area under concentration-response curve (CU-ACC2): 534 | area under concentration-response curve (NCI-H295R [4]): 495

CCc1cncnc1N1CCN(Cc2nc3cc(C(F)(F)F)ccc3[nH]2)CC1
AC50 viability (CU-ACC1 [1]): 20.9 µM | AC50 viability (NCI-H295R [2]): 20.9 µM | area under concentration-response curve (CU-ACC1 [3]): 438 | area under concentration-response curve (CU-ACC2): 590 | area under concentration-response curve (NCI-H295R [4]): 502

CCC[C@H](NC(=O)[C@@H]1[C@H]2CCC[C@H]2CN1C(=O)[C@@H](NC(=O)[C@@H](NC(=O)c1cnccn1)C1CCCCC1)C(C)(C)C)C(=O)C(=O)NC1CC1
AC50 viability (CU-ACC1 [1]): 0.00105 µM | AC50 viability (NCI-H295R [2]): 33.2 µM | area under concentration-response curve (CU-ACC1 [3]): 333 | area under concentration-response curve (CU-ACC2): 299 | area under concentration-response curve (NCI-H295R [4]): 285

COC1=C(OCCCN2CCOCC2)C=CC\3=C1/N=C(/NC(=O)C4=CN=C(N)N=C4)N5CC/N=C35
AC50 viability (CU-ACC1 [1]): 0.0382 µM | AC50 viability (NCI-H295R [2]): 0.108 µM | area under concentration-response curve (CU-ACC1 [3]): 431 | area under concentration-response curve (CU-ACC2): 542 | area under concentration-response curve (NCI-H295R [4]): 452
